These results are taken from patent US20250120964A1, “USE OF NOVEL MOLECULAR GLUE” (ASTROGEN, INC., priority 2023, published 2025).

By pIC50 is commonly meant the IC50 on a negative log10 scale, so that one unit is a factor of ten.

pIC50: −log10 of the molar value.

The subject of test [1] is 83NS (GSC cell line derived from a GBM patient) orthotopic glioblastoma model. Briefly: In vivo orthotopic glioblastoma xenograft model, survival. The note with it: mice, oral daily 50 mg/kg for 4 weeks, 83NS orthotopic model. The method, then:
An in vivo experiment was carried out using a xenograft model. Specifically, 83NS (GSC cell line derived from a GBM patient) was used to construct an orthotopic glioblastoma model in such a way that 1×10^4 cells were injected into the brain of each of mice (n=16) at a volume of 3 μl. Thereafter, a vehicle was administered to mice (n=8), and AST-DT-218 was orally administered daily to the remaining mice (n=8) at a concentration of 50 mg/kg for 4 weeks, […]. On the other hand, the drug to be administered was changed to AST-DT-135, and the same experiment was carried out.

The test system of test [2] is U87 cells. Briefly: Western blotting of gamma-H2AX and cleaved PARP. It is filed as cell-based. The protocol: The following experiments were carried out to check whether AST-DT-218 induces DNA fragmentation and apoptosis. First, U87 cells were cultured, the cells were separated using Trypsin-EDTA when the cells grew sufficiently, the cells were plated and distributed uniformly on a 12-well plate, and the cells were treated with AST-DT-218 after being attached. Subsequently, the cells were washed with PBS, proteins were extracted using a cell lysis buffer, and the cell extract was centrifugated to collect the supernatant. Then, protein samples having the same concentration were loaded onto an SDS-PAGE gel and subjected to electrophoresis, and the proteins were transferred to a PVDF membrane. After blocking the membrane with 5% skim milk (or BSA), each of the antibodies against γ-H2AX (DNA damage marker), cleaved PARP (apoptosis marker), and beta-actin was treated at 4° C. for 16 hours. The Western blotting results were analyzed to evaluate the expression levels of gamma-H2AX and cleaved PARP. Beta-actin was used as a loading control to check the consistency of the protein loading.

Test [3] has as its system U373 brain cancer cell line. Briefly: In vitro cell survival assay (nuclear staining), U373. It is filed as cell-based. The settings on record: Homo sapiens, U373 MG; U373, 48 hours treatment, cell number by nuclear staining. The method, then:
(§1) An in vitro experiment was carried out to check whether the compound (AST-DT-218) prepared in Example 2 was effective in the cell death in the brain cancer. First, brain cancer cell lines (U87, U373, and SK-N-SH) were cultured in the respective flasks to prepare cells that had reached the logarithmic growth stage. Then, the cells were washed with PBS, harvested with trypsin, centrifuged to adjust the cell density, and then resuspended in a suitable culture medium, and the cells were dispensed into a 96-well plate. The culture was carried out until the cells were attached to the plate and stabilized. AST-DT-218 and temozolomide, a conventional therapeutic agent for glioblastoma, were prepared and diluted at various concentrations (½ dilution from the highest concentration of 50 μM, 10-point). The cells in the well of the plate were treated for 48 hours with each compound at individual concentrations, and the cells were cultured to react with the compound. After the culture was completed, the number of cells was measured through the nuclear staining of the cells to evaluate the cell survival rate (FIG. 1), and IC50 was calculated (Table 2).

In test [4] the test system is U87 cells. Briefly: Colony-formation assay. Type of test: cell-based. The settings on record: cultured about two weeks, crystal violet. The protocol:
U87 cells, which are a brain cancer cell line, were cultured, the cells were separated using Trypsin-EDTA when the cells grew sufficiently, the cells were distributed uniformly on a 12-well plate, and the cells were treated with AST-DT-218 in each well after being attached. Then, the cells were cultured for about two weeks in an environment of 37° C. and about 5% CO2. When the cultivation was completed, the cells were fixed. Then, the colonies were stained with a crystal violet solution, and after the staining, the colonies were washed with PBS to remove background staining. A microscope was used to observe the colonies, and the number and size of the colonies were measured and quantified (FIG. 2).

Test [5] deals with U87 brain cancer cell line. Briefly: In vitro cell survival assay (nuclear staining), U87. Type of test: cell-based. The note with it: for pIC50: U87, 48 hours treatment, cell number by nuclear staining. The method, then: as §1
For test [6], the system named is SK-N-SH brain cancer cell line. Briefly: In vitro cell survival assay (nuclear staining), SK-N-SH. It is filed as cell-based. The note with it: Homo sapiens, 48 hours treatment, cell number by nuclear staining. The protocol: as §1
For test [7], the system named is U87 cells. Briefly: Propidium iodide (PI) apoptosis assay. It is filed as cell-based. The settings on record: flow cytometry. The protocol:
A PI apoptosis assay was carried out to check whether AST-DT-218 induces DNA fragmentation and apoptosis as in Experimental Example 3-1. A PI detection kit was prepared, propidium iodide (PI) was added to the U87 cells that had been treated with AST-DT-218, and a reaction was allowed to proceed at room temperature in a dark room for 10 minutes. Then, PI fluorescence was measured using a flow cytometry apparatus (FIG. 4).
A general note: In flow cytometry, cells or beads pass a laser one at a time.

For test [8], the system named is U373 glioblastoma-derived brain cancer cell line. Briefly: Dose response curve (DRC), cell survival, U373. The settings on record: Homo sapiens, U373 MG; Glioblastoma U373, 48 hours, highest concentration 10 μM; read-out: IC50 of AST-DT-218, U373. It is filed as cell-based. The method, then:
(§2) The DRC was created in order to check whether AST-DT-218 is effective in the cell death in the brain cancer. First, glioblastoma-derived brain cancer cell lines (U87 and U373) were cultured in the respective flasks to prepare cells that had reached the logarithmic growth stage. Then, the cells were washed with PBS, harvested with trypsin, centrifuged to adjust the cell density, and then resuspended in a suitable culture medium, and the cells were dispensed into a 96-well plate. Cells were cultured until they were attached to the plate and stabilized, AST-DT-218 and a control group (lenalidomide, pomalidomide) were prepared and diluted to a variety of concentrations (½ dilution from the highest concentration of 10 μM, 10-point). The cells in the well of the plate were treated for 48 hours with each compound at individual concentrations, and the cells were cultured to react with the compound. After the culture was completed, the number of cells was measured through the nuclear staining of the cells to evaluate the cell survival rate. The cell survival rate at each concentration was measured to collect data. Then, the DRC was created (FIG. 6 and FIG. 7), and IC50 was calculated (Table 3).

In test [9] the test system is U87 cells. Briefly: Measurement of sub G1 population (flow cytometry). Type of test: cell-based. The settings on record: 48 hours, 0.5 μM and 1 μM. The method, then:
The sub G1 population was measured to check whether AST-DT-218 induces DNA fragmentation and apoptosis as in Experimental Example 3-1. […] The value of the sub G1 population of cells was measured using a flow cytometry apparatus (FIG. 5).

Test [10] deals with U87 glioblastoma-derived brain cancer cell line. Briefly: Dose response curve (DRC), cell survival, U87. Type of test: cell-based. The protocol:
as §2

As to `CCC[C@H](C)Nc1cccc2c1C(=O)N(C1CCC(=O)NC1=O)C2=O` (stereo partly drawn) [AST-DT-135, 2-(2,6-dioxopiperidin-3-yl)-4-(((S)-pentan-2-yl)amino)isoindoline-1,3-dione], the “survival rate (Kaplan-Meier analysis) versus vehicle” value in [1] is reported as “significantly increased survival rate”.
In the case of `COc1ccc([C@@H](C)Nc2cccc3c2C(=O)N(C2CCC(=O)NC2=O)C3=O)cc1` (stereo partly drawn) [AST-DT-218, 2-(2,6-dioxopiperidin-3-yl)-4-(((R)-1-(4-methoxyphenyl)ethyl)amino)isoindoline-1,3-dione], the “DNA fragmentation and apoptosis (expression of gamma-H2AX and cleaved PARP)” value in the test on U87 cells [2] is “induced DNA fragmentation and apoptosis”. Besides, the pIC50 in test [3] is 6.15; in test [5] it was 5.47; in test [6] it was 6.62; in test [8], 5.91; in test [10] (Glioblastoma U87, 48 hours, highest concentration 10 μM, read-out: IC50 of AST-DT-218, U87) it was 5.47. Further, the formation of colonies entry with U87 cells [4] is given as “significantly reduced the formation of colonies”. In addition, the “cell death efficacy compared with temozolomide” value in test [5] (brain cancer cell lines U87, U373, SK-N-SH, summary of Table 2) was “efficacy superior to temozolomide”. The “survival rate (Kaplan-Meier analysis) versus vehicle” value in [1] was “significantly increased survival rate”. Also, in the test on U87 cells [7], the “DNA fragmentation and apoptosis (PI fluorescence)” value was “induced DNA fragmentation and apoptosis”. For the same molecule, the “value of the sub G1 population” value in the test with U87 cells [9] is given as “increased”. In test [10] (U87 and U373, DRC), the “cell death of brain cancer cells compared with lenalidomide and pomalidomide” value is listed as “effective in the cell death of the brain cancer cells”.
As for `Cn1nnc2c(C(N)=O)ncn2c1=O` [Temozolomide, temozolomide, reference compound], the values for the pIC50 in [5] and in test [6] were 3.54 and 4.61, respectively.
